Data taken from patent publication US8063108B2, “Method for modulating microbial quorum sensing” (priority 2004, dated 2011).

Tests used:
Assay type in all cases: cell-based
[1] = target: T1, LasR transcriptional activator (Pseudomonas aeruginosa, UniProt P25084); test: P. putida F117 pKRC12 lasB-GFP reporter assay (secondary screens); conditions: compounds 10 μM, relative fluorescence (fluorescence divided by absorbance at 600 nm) as percent of AHL induced control; for % Activity of AHL Standard, 3 oxo C10HSL: 3oxoC10HSL 100 nM; for % Activity of AHL Standard, 3 oxo C12HSL: 3oxoC12HSL 50 nM
T1 construct: expressed in transfected cells; host or cells: Pseudomonas putida F117 carrying plasmid pKRC12 (lasR, PlasB-gfp)
Experimental: Additional screens were performed similar to screen described in the initial screen, except assays were performed in 96-well microtiter plates at a total volume of 100 μl. The reporter strain P. putida F117 pKRC12 was grown overnight at 28° C. in LB media, diluted with LB media to achieve an optical density of 0.05 at 600 nm (OD600), and 96 μl of cells were aliquoted to 96-well plates. Compounds were added at a final concentration of 100 nm or as otherwise indicated in each experiment and the bacterial cells were incubated with the compounds for approximately 30 minutes prior to the addition of 3oxoC10HSL or 3oxoC12HSL at a final concentration of 100 nM and 50 nM respectively or as indicated for each experiment. Fluorescence was measured at regular intervals after 3 hours using the Wallac Victor2 plate reader with an excitation wavelength of 485 nm and emission detection at 515 nm. Representative results are presented in FIGS. 6A and B and present the percentage of GFP expression activity as a function of expression of the AHL (3oxoC10 HSL) control. The numbers on the X axis refer to the Chembridge library reference number. Effects on growth of the antagonists were determined by measuring the optical density at 600 nm of growing bacterial cultures P. putida F 117 pKRC 12. […] (Reference for P. putida F117 pKRC12: Steidle, A., K. Sigl, R. Schuhegger, A. Ihring, M. Schmid, S. Gantner, M. Stoffels, K. Riedel, M. Givskov, A. Hartmann, C. Langebartels, and L. Eberl. 2001. Visualization of N-acylhomoserine lactone-mediated cell-cell communication between bacteria colonizing the tomato rhizosphere. Appl Environ Microbiol 67:5761-70). […]
This example presents representative results of experiments designed to test the activity of putative antagonists when challenged with different concentrations of synthetic AHLs, particularly 3oxoC12HSL. Assays were conducted with P. putida F117 pKRC12 reporter strain as described in the methods for secondary screens.
Following the initial screens to identify strong antagonists of the LasR transcriptional activator, further investigation of additional compounds in the Chembridge library was carried out. In particular, the experiments described in Example 1 identified three compounds that shared a thiocarbamate structure, as also shown in FIG. 16. To further investigate structure-activity relationships, the inventors examined the antagonist activity of 19 additional compounds with related thiocarbamate structures, using the procedures described in Example 1. The results are presented in Table 4, expressed as the percent activity of the AHL induced control. The % activity represents the relative fluorescence, which is the fluorescence observed in each assay divided by bacterial cell density as measured by absorbance at 600 nm. Compounds were assayed at a concentration of 10 μM. Assays were conducted with P. putida F117 pKRC12 reporter strain as described in the methods for secondary screens. The 3oxoC10HSL and 3oxoC12HSL were assayed at concentrations of 100 nM and 50 nM, respectively.

CviR = target: T2, CviR (Chromobacterium violaceum, UniProt D3W065); test: Chromobacterium violaceum CV026 violacein plate assay; conditions: 1 μl of 0.1 mg/ml spotted
T2 construct: endogenous in cells; host or cells: Chromobacterium violaceum CV026
Experimental: (§1) Additional screens were performed as described above, except fluorescence was measured using the Wallac Victor2 plate reader with an excitation wavelength of 485 nm and emission detection at 515 nm. E. coli reporter induction assays were performed as described for P. putida. Chromobacterium violaceum CV026 and Agrobacterium tumefaciens KYC55 induction assays were performed by applying compounds to a lawn of bacteria on agar plates. C. violaceum CV026 inhibition assays were performed by applying compounds to a lawn of bacteria on agar plates containing synthetic N-3-oxohexanoyl-L-homoserine lactone.
Chromobacterium violaceum CV026 is a mutant that is unable to produce AHLs. Exogenous AHLs must be added to induce the LuxR-type transcriptional regulator which is designated CviR in this strain. Activation of CviR is indicated by the production of violacein. Cultures were grown overnight at 28° C. in LB media. […] Inhibition of quorum sensing was qualitatively measured by observing the lack of production of violacein in areas where compounds were applied. […] Activation of quorum sensing was qualitatively measured by observing the production of violacein in areas where compounds were applied. […]

TraR = target: T3, TraR (Agrobacterium tumefaciens, UniProt P33905); test: Agrobacterium tumefaciens KYC55 β-Galactosidase induction plate assay; conditions: 1 μl of 0.1 mg/ml spotted
T3 construct: expressed in transfected cells; host or cells: Agrobacterium tumefaciens KYC55
Experimental: as §1
Agrobacterium tumefaciens KYC55 is a mutant strain that is unable to produce AHLs. Exogenous AHLs must be added to induce the LuxR-type transcriptional regulator which is designated TraR in this strain. This strain contains a plasmid that encodes β-Galactosidase under the transcriptional control of TraR. Activation of TraR is indicated by the production of β-Galactosidase. Cultures were grown overnight at 28° C. in AMA broth. Induction assays were performed by applying compounds to a lawn of bacteria on AMA agar plates containing […] of X-Gal per ml. […] Activation of quorum sensing was qualitatively measured by observing the production the blue pigment that results from β-Galactosidase cleavage of the X-gal substrate in areas where compounds were applied. […]

T1 sequence (P25084 whole entry): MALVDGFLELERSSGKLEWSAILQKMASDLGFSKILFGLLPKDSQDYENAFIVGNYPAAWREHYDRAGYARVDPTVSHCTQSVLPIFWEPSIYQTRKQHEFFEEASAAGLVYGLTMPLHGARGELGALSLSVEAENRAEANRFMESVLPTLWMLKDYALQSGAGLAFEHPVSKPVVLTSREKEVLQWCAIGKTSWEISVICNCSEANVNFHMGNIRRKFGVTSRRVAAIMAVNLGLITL
T3 sequence (P33905 whole entry): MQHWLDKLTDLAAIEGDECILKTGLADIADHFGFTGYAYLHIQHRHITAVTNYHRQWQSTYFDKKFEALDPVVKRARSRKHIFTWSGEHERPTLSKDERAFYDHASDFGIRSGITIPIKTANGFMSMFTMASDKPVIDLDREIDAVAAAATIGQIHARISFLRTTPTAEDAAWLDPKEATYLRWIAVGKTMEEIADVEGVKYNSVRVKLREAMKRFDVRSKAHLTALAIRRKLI
T2 sequence (D3W065 1-265): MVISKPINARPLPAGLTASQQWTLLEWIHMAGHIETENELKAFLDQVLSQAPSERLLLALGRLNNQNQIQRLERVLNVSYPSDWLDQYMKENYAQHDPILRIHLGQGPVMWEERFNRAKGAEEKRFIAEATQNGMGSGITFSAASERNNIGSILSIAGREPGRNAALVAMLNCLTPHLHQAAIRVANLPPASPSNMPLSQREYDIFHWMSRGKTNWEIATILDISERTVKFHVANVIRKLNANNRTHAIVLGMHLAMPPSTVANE

| Structure (SMILES) | % Activity of AHL Standard, 3 oxo C10HSL [1] | % Activity of AHL Standard, 3 oxo C12HSL [1] | Activation of quorum sensing (violacein production), control (CviR) | Induction of β-Galactosidase (blue zone), control (TraR) |
| --- | --- | --- | --- | --- |
| Cc1ccc(Cl)cc1NC(=O)CSC(N)=O [Compound 5] | 56.73% | 47.85% |  |  |
| NC(=O)SCC(=O)Nc1cccc(F)c1 [Compound 13] | 33.60% | 67.60% |  |  |
| COc1ccc(NC(=O)CSC(N)=O)cc1 [Compound 7] | 36.45% | 49.85% |  |  |
| NC(=O)SCC(=O)Nc1ccc(Cl)c(Cl)c1 [Compound 20] | 40.50% | 87.70% |  |  |
| Cc1cccc(NC(=O)CSC(N)=O)c1C [Compound 4] | 37.50% | 43.00% |  |  |
| NC(=O)SCC(=O)Nc1cccc(O)c1 [Compound 6] | 45.08% | 49.68% |  |  |
| Cc1cccc(NC(=O)CSC(N)=O)c1 [Compound 10] | 49.10% | 55.40% |  |  |
| NC(=O)SCC(=O)Nc1ccc(Br)cc1 [Compound 15] | 39.00% | 70.10% |  |  |
| Cc1ccc(NC(=O)CSC(N)=O)c(C)c1 [Compound 18] | 40.00% | 82.30% |  |  |
| NC(=O)SCC(=O)Nc1cccc(Cl)c1 [Compound 21] | 43.30% | 88.50% |  |  |
| NC(=O)SCC(=O)Nc1ccccc1Br [Compound 11] | 36.60% | 56.70% |  |  |
| COc1ccccc1NC(=O)CSC(N)=O [Compound 14] | 46.80% | 68.60% |  |  |
| COC(=O)c1ccc(NC(=O)CSC(N)=O)cc1 [Compound 22] | 57.60% | 101.0% |  |  |
| Cc1ccc(NC(=O)CSC(N)=O)cc1Cl [Compound 3] | 32.27% | 41.63% |  |  |
| COC(=O)c1ccccc1NC(=O)CSC(N)=O [Compound 1] | 35.86% | 33.64% |  |  |
| CC(=O)c1ccc(NC(=O)CSC(N)=O)cc1 [Compound 12] | 59.20% | 64.90% |  |  |
| CCCC(=O)CC(=O)N[C@H]1CCOC1=O [Compound 3oxoC6HSL, N-(3-oxohexanoyl)-L-homoserine lactone] |  |  | activated gene expression | activated gene expression |
| NC(=O)SCC(=O)Nc1ccccc1Cl [Compound 8] | 32.72% | 51.98% |  |  |
| CCOC(=O)c1ccccc1NC(=O)CSC(N)=O [Compound 2] | 35.50% | 40.09% |  |  |
| NC(=O)SCC(=O)Nc1cccc(I)c1 [Compound 17] | 67.20% | 81.20% |  |  |
| COc1ccc(NC(=O)CSC(N)=O)c(OC)c1 [Compound 16] | 35.00% | 70.90% |  |  |
| COc1cccc(NC(=O)CSC(N)=O)c1 [Compound 9] | 35.50% | 53.30% |  |  |
| NC(=O)SCC(=O)Nc1ccccc1O [Compound 19] | 38.60% | 82.90% |  |  |
